The text below walks through data of US12227520B2 (priority 2019, dated 2025).

One data set deals with HIV-1 (IIIB). The data set can be described thus: Antiviral assay in MT-4 cells (HIV MT-4 antiviral assay). The format is cell-based. The settings on record: Human immunodeficiency virus 1, IIIB, MT4, 120 h, HIV-1 (IIIB) in MT-4 cells, 5 days incubation; read-out: EC50. The procedure: Compounds were tested in a high-throughput 384-well assay format for their ability to inhibit the replication of HIV-1 (IIIB) in MT-4 cells. Compounds were serially diluted (1:3) in DMSO on 384-well polypropylene plates and further diluted 200-fold into complete RPMI media (10% FBS, 1% P/S) using the Biotek Micro Flow and Labcyte ECHO acoustic dispenser. Each plate contained up to 8 test compounds, with negative (No Drug Control) and 5 μM AZT positive controls. MT-4 cells were pre-infected with 10 μL of either RPMI (mock-infected) or a fresh 1:250 dilution of HIV-1 IIIB concentrated virus stock. Infected and uninfected MT-4 cells were further diluted in complete RPMI media and added to each plate using a Micro Flow dispenser. After 5 days incubation in a humidified and temperature controlled incubator (37° C.), Cell Titer Glo (Promega) was added to the assay plates and chemiluminescence read using an Envision plate-reader.

Data set [1] in a line: Cytotoxicity assay in MT-4 cells. In kind it is cell-based, human. The settings on record: human, uninfected MT-4 cells, 5 days incubation; read-out: CC50. The protocol: Each plate contained up to 8 test compounds, with negative (No Drug Control) and 5 μM AZT positive controls. MT-4 cells were pre-infected with 10 μL of either RPMI (mock-infected) or a fresh 1:250 dilution of HIV-1 IIIB concentrated virus stock. Infected and uninfected MT-4 cells were further diluted in complete RPMI media and added to each plate using a Micro Flow dispenser. After 5 days incubation in a humidified and temperature controlled incubator (37° C.), Cell Titer Glo (Promega) was added to the assay plates and chemiluminescence read using an Envision plate-reader. […] Assays were performed as above except uninfected MT-4 cells were added to each well containing test compound. In addition, 10 μM puromycin was added to the last column of each assay plate to assess a base level of cytotoxicity.

SMILES strings stand for the structures.

On to `Cc1noc2c1C[C@H]1CN(C2)C(=O)c2c(O)c(=O)c(C(=O)NCc3c(F)cc(F)cc3F)cn21` (single isomer, unassigned) [Example 135-2], for which the EC50 in the data set with HIV-1 (IIIB) was 4.77 nM. Besides, the CC50 at 5 days in data set [1] was more than 50000 nM.
On to `O=C(NCc1c(F)cc(F)cc1F)c1cn2c(c(O)c1=O)C(=O)N1CC2CCc2sccc21` (stereo in doubt) [Example 104-2, (11S)-6-hydroxy-5,7-dioxo-N-(2,4,6-trifluorobenzyl)-5,7,12,13-tetrahydro-11H-4,11-methanopyrido[1,2-a]thieno[3,2-e][1,4]diazonine-8-carboxamide], for which the EC50 in the data set on HIV-1 (IIIB) stood at 35.3 nM. Besides, the CC50 at 5 days in data set [1] amounted to 14000 nM.
For `O=C(NCc1ccc(F)cc1F)c1cn2c(c(O)c1=O)C(=O)N1C[C@H]2CCC(F)(F)C1` [Example 4-1, (7R)—N-(2,4-difluorobenzyl)-4,4-difluoro-12-hydroxy-1,11-dioxo-1,4,5,6,7,11-hexahydro-3H-2,7-methanopyrido[1,2-a][1,4]diazonine-10-carboxamide] the same measures were 6.4 nM and 23300 nM.
For `O=C(NCc1c(F)cc(F)cc1F)c1cn2c(c(O)c1=O)C(=O)N1CCCC(O)C2C1` (stereo not shown) [Example 11, 6,12-dihydroxy-1,11-dioxo-N-(2,4,6-trifluorobenzyl)-1,4,5,6,7,11-hexahydro-3H-2,7-methanopyrido[1,2-a][1,4]diazonine-10-carboxamide] the same measures were 7.2 nM and more than 50000 nM.
For `O=C(NCc1ccc(F)cc1F)c1cn2c(c(O)c1=O)C(=O)N1CCCC(O)C2C1` (stereo not shown) [Example 12, N-(2,4-difluorobenzyl)-6,12-dihydroxy-1,11-dioxo-1,4,5,6,7,11-hexahydro-3H-2,7-methanopyrido[1,2-a][1,4]diazonine-10-carboxamide], in that order: 4.1 nM and more than 50000 nM.
Take `O=C(NCc1ccc(F)cc1F)c1cn2c(c(O)c1=O)C(=O)N1CCCC(F)C2C1` (stereo not shown) [Example 13, N-(2,4-difluorobenzyl)-6-fluoro-12-hydroxy-1,11-dioxo-1,4,5,6,7,11-hexahydro-3H-2,7-methanopyrido[1,2-a][1,4]diazonine-10-carboxamide]: the EC50 in the data set with HIV-1 (IIIB) is 1.3 nM. Also, the CC50 at 5 days in data set [1] worked out at 17200 nM.
Turning to `CC12CCCCN(C1)C(=O)c1c(O)c(=O)c(C(=O)NCc3c(F)cc(F)cc3F)cn12` (stereo not shown) [Example 18, 12-hydroxy-7-methyl-1,11-dioxo-N-(2,4,6-trifluorobenzyl)-1,4,5,6,7,11-hexahydro-3H-2,7-methanopyrido[1,2-a][1,4]diazonine-10-carboxamide], in the data set with HIV-1 (IIIB), the EC50 came out at 1.4 nM. For the same molecule, in data set [1], the CC50 at 5 days was found to be 29400 nM.
With `O=C(NCc1ccc(F)cc1F)c1cn2c(c(O)c1=O)C(=O)N1CCCC2CC1` (stereo not shown) [Example 23, N-(2,4-difluorobenzyl)-11-hydroxy-1,10-dioxo-1,3,4,5,6,10-hexahydro-2,6-ethanopyrido[1,2-a][1,4]diazocine-9-carboxamide], the EC50 with HIV-1 (IIIB) is 59.9 nM. Besides, in data set [1], the CC50 at 5 days was 12000 nM.
In the case of `O=C(NCc1ccc(F)cc1F)c1cn2c(c(O)c1=O)C(=O)N1C(=O)C2CCc2ccccc21` (stereo not shown) [Example 27, N-(2,4-difluorobenzyl)-7-hydroxy-6,8,15-trioxo-6,8,13,14-tetrahydro-12H-5,12-methanobenzo[e]pyrido[1,2-a][1,4]diazonine-9-carboxamide], in the data set with HIV-1 (IIIB), the EC50 was more than 100 nM. The CC50 at 5 days in data set [1] turned out to be 10900 nM.
Take `O=C(NCc1ccc(F)cc1F)c1cn2c(c(O)c1=O)C(=O)N1CCOC[C@@H]2C1` [Example 28, (7S)—N-(2,4-difluorobenzyl)-12-hydroxy-1,11-dioxo-1,3,4,6,7,11-hexahydro-2,7-methanopyrido[1,2-d][1,4,7]oxadiazonine-10-carboxamide]: in the data set with HIV-1 (IIIB), the concentration for a half-maximal effect (EC50) was determined as 13.5 nM. Also, the CC50 at 5 days in data set [1] is more than 50000 nM.
Regarding `O=C(NCc1ccc(F)cc1F)c1cn2c(c(O)c1=O)C(=O)N1CCOC[C@H]2C1` [Example 29, (7R)—N-(2,4-difluorobenzyl)-12-hydroxy-1,11-dioxo-1,3,4,6,7,11-hexahydro-2,7-methanopyrido[1,2-d][1,4,7]oxadiazonine-10-carboxamide], the half-maximal effective concentration (EC50) in the data set on HIV-1 (IIIB) was determined as 7 nM. For the same molecule, the CC50 at 5 days in data set [1] was more than 50000 nM.
For the molecule `O=C(NCc1ccc(F)cc1F)c1cn2c(c(O)c1=O)C(=O)N1CCNCC2C1` (stereo not shown) [Example 30, N-(2,4-difluorobenzyl)-12-hydroxy-1,11-dioxo-1,4,5,6,7,11-hexahydro-3H-2,7-methanopyrido[1,2-a][1,4,7]triazonine-10-carboxamide], in the data set with HIV-1 (IIIB), the EC50 was determined as 6.9 nM. In data set [1], the CC50 at 5 days stood at 1660 nM.
For the molecule `CC(=O)N1CCN2CC(C1)n1cc(C(=O)NCc3ccc(F)cc3F)c(=O)c(O)c1C2=O` (stereo not shown) [Example 31, 5-acetyl-N-(2,4-difluorobenzyl)-12-hydroxy-1,11-dioxo-1,4,5,6,7,11-hexahydro-3H-2,7-methanopyrido[1,2-a][1,4,7]triazonine-10-carboxamide], the EC50 with HIV-1 (IIIB) is more than 100 nM. For the same molecule, the CC50 at 5 days in data set [1] was more than 50000 nM.
Take `CS(=O)(=O)N1CCN2CC(C1)n1cc(C(=O)NCc3ccc(F)cc3F)c(=O)c(O)c1C2=O` (stereo not shown) [Example 32, N-(2,4-difluorobenzyl)-12-hydroxy-5-(methylsulfonyl)-1,11-dioxo-1,4,5,6,7,11-hexahydro-3H-2,7-methanopyrido[1,2-a][1,4,7]triazonine-10-carboxamide]: in the data set on HIV-1 (IIIB), the EC50 was more than 100 nM. In data set [1], the CC50 at 5 days is more than 50000 nM.
For the molecule `CN1CCN2CC(C1)n1cc(C(=O)NCc3ccc(F)cc3F)c(=O)c(O)c1C2=O` (stereo not shown) [Example 33, N-(2,4-difluorobenzyl)-12-hydroxy-5-methyl-1,11-dioxo-1,4,5,6,7,11-hexahydro-3H-2,7-methanopyrido[1,2-a][1,4,7]triazonine-10-carboxamide], the EC50 with HIV-1 (IIIB) turned out to be 7 nM. The CC50 at 5 days in data set [1] is more than 50000 nM.
Turning to `O=C(NCc1c(F)cc(F)cc1F)c1cn2c(c(O)c1=O)C(=O)N1C[C@H]2CCc2c(Cl)cccc21` [Example 45-2, (12R)-1-chloro-7-hydroxy-6,8-dioxo-N-(2,4,6-trifluorobenzyl)-6,8,13,14-tetrahydro-12H-5,12-methanobenzo[e]pyrido[1,2-a][1,4]diazonine-9-carboxamide], the concentration giving a half-maximal response (EC50) with HIV-1 (IIIB) was 30.3 nM. Also, the half-maximal cytotoxic concentration (CC50) at 5 days in data set [1] was determined as 8890 nM.
Regarding `O=C(NCc1c(F)cc(F)cc1F)c1cn2c(c(O)c1=O)C(=O)N1C[C@@H]2CCc2cccc(F)c21` [Example 46-1, (12S)-4-fluoro-7-hydroxy-6,8-dioxo-N-(2,4,6-trifluorobenzyl)-6,8,13,14-tetrahydro-12H-5,12-methanobenzo[e]pyrido[1,2-a][1,4]diazonine-9-carboxamide], the EC50 in the data set on HIV-1 (IIIB) worked out at 90.2 nM. Also, the CC50 at 5 days in data set [1] was determined as 9240 nM.
On to `O=C(NCc1c(F)cc(F)cc1F)c1cn2c(c(O)c1=O)C(=O)N1C[C@@H]2CCc2cc(Cl)ccc21` [Example 48-1, (12S)-2-chloro-7-hydroxy-6,8-dioxo-N-(2,4,6-trifluorobenzyl)-6,8,13,14-tetrahydro-12H-5,12-methanobenzo[e]pyrido[1,2-a][1,4]diazonine-9-carboxamide], for which, in the data set on HIV-1 (IIIB), the EC50 is more than 34 nM. In addition, the CC50 at 5 days in data set [1] was more than 13800 nM.
For `O=C(NCc1ccc(F)cc1F)c1cn2c(c(O)c1=O)C(=O)N1C[C@@H]2CCc2cc(Cl)ccc21` [Example 49-1, (12S)-2-chloro-N-(2,4-difluorobenzyl)-7-hydroxy-6,8-dioxo-6,8,13,14-tetrahydro-12H-5,12-methanobenzo[e]pyrido[1,2-a][1,4]diazonine-9-carboxamide], the EC50 in the data set on HIV-1 (IIIB) came out at 36.5 nM. Also, in data set [1], the CC50 at 5 days was more than 15700 nM.
Regarding `COc1cccc(CNC(=O)c2cn3c(c(O)c2=O)C(=O)N2CCCC[C@H]3C2)c1F` [Example 54], in the data set on HIV-1 (IIIB), the EC50 was found to be 36 nM. Besides, the CC50 at 5 days in data set [1] turned out to be 1460 nM.
On to `O=C(NCc1ccc(F)cc1F)c1cn2c(c(O)c1=O)C(=O)N1CCCC(O)(C(F)F)[C@H]2C1` (stereo partly drawn) [Example 76, (7R)—N-(2,4-difluorobenzyl)-6-(difluoromethyl)-6,12-dihydroxy-1,11-dioxo-1,4,5,6,7,11-hexahydro-3H-2,7-methanopyrido[1,2-a][1,4]diazonine-10-carboxamide], for which the EC50 in the data set on HIV-1 (IIIB) was 7.99 nM. The CC50 at 5 days in data set [1] worked out at 23700 nM.
Take `Cn1ncc2c1CC[C@H]1CN2C(=O)c2c(O)c(=O)c(C(=O)NCc3c(F)cc(F)cc3F)cn21` [Example 85-2, (11S)-6-hydroxy-1-methyl-5,7-dioxo-N-(2,4,6-trifluorobenzyl)-1,5,7,11,12,13-hexahydro-4,11-methanopyrazolo[4,3-e]pyrido[1,2-a][1,4]diazonine-8-carboxamide]: in the data set on HIV-1 (IIIB), the EC50 came out at 5.85 nM. Moreover, in data set [1], the CC50 at 5 days is more than 49300 nM.
For `O=C(NCc1c(F)cc(F)cc1F)c1cn2c(c(O)c1=O)C(=O)N1C[C@H]2CCc2ccc(F)cc21` [Example 86-1, (12R)-3-fluoro-7-hydroxy-6,8-dioxo-N-(2,4,6-trifluorobenzyl)-6,8,13,14-tetrahydro-12H-5,12-methanobenzo[e]pyrido[1,2-a][1,4]diazonine-9-carboxamide] the same measures were 27 nM and more than 30300 nM.

By EC50 is commonly meant the midpoint of the concentration-response curve. As usually defined, the CC50 is the concentration at which the toxic effect on the cells reaches its halfway point.
